Measured values from patent US12077503B2, “Substituted cyclic amides and their use as herbicides” (FMC CORPORATION, priority 2015, dated 2024).
Where two headings read alike, the source gives them in different places.

Key:
Format in all cases: in vivo
rice (Oryra sativa) = experiment: Test B flooded paddy test; conditions: Oryza sativa, Flood, 250 g ai/ha, read-out: Rice plant response rating
Method in brief: (§1)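 Flooding to 3 cm over soil accompanied treatment, which consisted of adding compound to the standing water around 2-leaf plants; depth was then maintained. Visual assessment versus controls followed at 13 to 15 d (scale 0–100, 0 meaning no effect).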

[1] = test system: sedge, umbrella (small-flower umbrella sedge, Cyperus difformis); experiment: Test B flooded paddy test; conditions: Cyperus difformis, Flood, 250 g ai/ha, read-out: Sedge, Umbrella plant response rating
Method in brief: as §1

[2] = test system: ducksalad (Heteranthera limosa); experiment: Test B flooded paddy test; conditions: Heteranthera limosa, Flood, 250 g ai/ha, read-out: Ducksalad plant response rating
Method in brief: as §1

[3] = test system: barnyardgrass (Echinochloa crus-galli); experiment: Test B flooded paddy test; conditions: Echinochloa crus-galli, Flood, 250 g ai/ha, read-out: Barnyardgrass plant response rating
Method in brief: as §1

[4] = test system: giant foxtail (Setaria faberii); experiment: Test A postemergence; conditions: Setaria faberi, post-emergence, 240 h; for pest or weed control at 125 g/ha: 125 g ai/ha
Method in brief: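 Compounds were formulated in a non-phytotoxic solvent mixture with surfactant and applied as a preemergence directed soil spray after seeding, or sprayed postemergence over plants 2 to 10 cm tall at the one- to two-leaf stage. Evaluation after about 10 d compared treated with untreated controls, using a scale from 0 (no effect) to 100 (complete control).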

[5] = scale of 0 to 100 where 0 is no effect and 100 is complete control
[6] = postemergence, visual injury rating after approximately 10 d, read-out: Foxtail, Giant plant response rating (0 to 100 scale, 0 no effect, 100 complete control)
[7] = Postemergence, visual injury after approximately 10 d, 0 to 100 scale where 0 is no effect and 100 is complete control, read-out: Plant response rating, Foxtail, Giant
[8] = 0 to 100 scale where 0 is no effect and 100 is complete control

Row | Structure (SMILES) | pest or weed control at 250 g/ha (rice (Oryra sativa); [5]) [%] | pest or weed control at 250 g/ha [1, 5] [%] | pest or weed control at 250 g/ha [2, 5] [%] | pest or weed control at 250 g/ha [3, 5] [%] | pest or weed control at 125 g/ha [4, 6] [%] | pest or weed control at 125 g/ha [4, 7] [%] | pest or weed control at 31 g/ha ([4]; Postemergence, 31 g ai/ha, visual injury after approx. 10 d, 0 to 100 scale, 0 no effect, 100 complete control, read-out: Plant response rating, Foxtail, Giant) [%] | pest or weed control at 250 g/ha [1, 8] [%] | pest or weed control at 250 g/ha (rice (Oryra sativa); [8]) [%] | pest or weed control at 250 g/ha [2, 8] [%] | pest or weed control at 250 g/ha [3, 8] [%] | pest or weed control at 500 g/ha ([4]; 500 g ai/ha, postemergence, visual injury, 0 to 100 scale (0 no effect, 100 complete control), approx. 10 d, read-out: Plant response rating, Foxtail, Giant) [%]
1 | CN1C[C@H](c2cc(F)c(F)c(F)c2)[C@@H](C(=O)Nc2ccccc2S(C)(=O)=O)C1=O [Compound 880] | 0 | 0 | 100 | 60 | 80 | – | – | – | – | – | – | –
2 | COc1c(F)ccc([C@H]2CNC(=O)[C@@H]2C(=O)Nc2ccc(F)cc2F)c1Cl [Compound 883] | 20 | 0 | 80 | 0 | 70 | – | – | – | – | – | – | –
3 | Cc1cc(C)cc([C@H]2CNC(=O)[C@@H]2C(=O)Nc2ccccc2F)c1 [Compound 888] | 0 | 0 | 75 | 70 | 30 | – | – | – | – | – | – | –
4 | COc1c(F)ccc([C@H]2CN(C)C(=O)[C@@H]2C(=O)Nc2ccccc2F)c1Cl [Compound 892] | 0 | 0 | 80 | 65 | 90 | – | – | – | – | – | – | –
5 | COc1c(F)ccc([C@H]2CN(C)C(=O)[C@@H]2C(=O)Nc2ccc(F)c(F)c2F)c1Cl [Compound 895] | 0 | 0 | 85 | 75 | 90 | – | – | – | – | – | – | –
6 | COc1c(F)ccc([C@H]2CN(C)C(=O)[C@@H]2C(=O)Nc2ccccc2C(F)(F)F)c1Cl [Compound 896] | 20 | 0 | 25 | 45 | 90 | – | – | – | – | – | – | –
7 | COc1c(F)ccc([C@H]2CN(C)C(=O)[C@@H]2C(=O)Nc2ccccc2S(C)(=O)=O)c1Cl [Compound 897] | 0 | 0 | 45 | 45 | 80 | – | – | – | – | – | – | –
8 | CCOc1ccc([C@H]2CN(C)C(=O)[C@@H]2C(=O)Nc2cccc(F)c2F)cc1 [Compound 904] | 0 | 0 | 0 | 0 | 80 | – | – | – | – | – | – | –
9 | Cc1cc(C)cc([C@H]2CN(C)C(=O)[C@@H]2C(=O)Nc2cccc(F)c2F)c1 [Compound 911] | 0 | 0 | 75 | 80 | 90 | – | – | – | – | – | – | –
10 | CN1CC[C@H](c2cccc(Cl)c2)[C@@H](C(=O)Nc2cccc(Cl)c2F)C1=O [Compound 924] | 0 | 0 | 70 | 50 | – | 90 | – | – | – | – | – | –
11 | Cc1cc([C@H]2CN(C)C(=O)[C@@H]2C(=O)Nc2ccccc2S(C)(=O)=O)ccc1Cl [Compound 944] | 0 | 0 | 75 | 40 | – | 90 | – | – | – | – | – | –
12 | CC(C)Oc1ccc([C@H]2CN(C)C(=O)[C@@H]2C(=O)Nc2ccc(F)cc2F)cc1 [Compound 954] | 0 | 0 | 35 | 0 | – | 60 | – | – | – | – | – | –
13 | CCOc1cccc([C@H]2CN(C)C(=O)[C@@H]2C(=O)Nc2cccc(F)c2F)c1 [Compound 956] | 0 | 0 | 100 | 70 | – | 80 | – | – | – | – | – | –
14 | CN1C[C@H](c2csc(C(F)(F)F)c2)[C@@H](C(=O)Nc2cccc(F)c2F)C1=O [Compound 959] | 20 | 0 | 100 | 60 | – | 80 | – | – | – | – | – | –
15 | CN1C[C@H](c2cc(C(F)(F)F)cs2)[C@@H](C(=O)Nc2ccccc2F)C1=O [Compound 962] | 10 | 0 | 90 | 60 | – | 90 | – | – | – | – | – | –
16 | CC(C)COc1cccc([C@H]2CNC(=O)[C@@H]2C(=O)Nc2cccc(F)c2F)c1 [Compound 965] | 0 | 0 | 85 | 20 | – | 70 | – | – | – | – | – | –
17 | CC(C)COc1cccc([C@H]2CNC(=O)[C@@H]2C(=O)Nc2ccc(F)cc2F)c1 [Compound 966] | 0 | 0 | 60 | 0 | – | 40 | – | – | – | – | – | –
18 | CN1C[C@H](c2cc(F)cc(F)c2)[C@@H](C(=O)Nc2ccc(C(F)(F)F)cc2)C1=O [Compound 968] | 0 | 0 | 30 | 0 | – | 0 | – | – | – | – | – | –
19 | CCOc1cc([C@H]2CN(C)C(=O)[C@@H]2C(=O)Nc2cccc(F)c2F)cc(C(F)(F)F)c1 [Compound 971] | 45 | 0 | 85 | 60 | – | 80 | 80 | – | – | – | – | –
20 | CSc1ccccc1NC(=O)[C@H]1C(=O)NC[C@@H]1c1cc(F)cc(Cl)c1 [Compound 977] | 15 | 0 | 100 | 15 | – | 90 | – | – | – | – | – | –
21 | CN1C[C@H](c2cc(F)cc(Cl)c2)[C@@H](C(=O)Nc2ccccc2S(C)(=O)=O)C1=O [Compound 979] | 0 | 0 | 100 | 60 | – | 90 | – | – | – | – | – | –
22 | COc1ccc([C@H]2CN(C)C(=O)[C@@H]2C(=O)Nc2ccccc2SC)cc1C(F)(F)F [Compound 991] | 15 | – | 40 | 0 | – | 80 | – | 0 | – | – | – | –
23 | CN1C[C@H](c2cc(F)cc(F)c2)[C@@H](C(=O)Nc2cc(O)ccc2F)C1=O [Compound 992] | 0 | – | 0 | 0 | – | 0 | – | 0 | – | – | – | –
24 | CN1C[C@H](c2cc(F)cc(C(F)(F)F)c2)[C@@H](C(=O)Nc2ccc(F)c(F)c2F)C1=O [Compound 993] | 40 | – | 85 | 70 | – | 90 | – | 60 | – | – | – | –
25 | CN1CC[C@H](c2ccc(OC(F)(F)F)cc2)[C@@H](C(=O)Nc2ccccc2C(F)(F)F)C1=O [Compound 998] | 0 | – | 0 | 0 | – | 0 | – | 0 | – | – | – | –
26 | CN1CC[C@H](c2ccc(OC(F)(F)F)cc2)[C@@H](C(=O)Nc2cccc(F)c2F)C1=O [Compound 999] | – | – | – | – | – | 40 | – | 0 | 0 | 85 | 0 | –
27 | Cc1ccc([C@H]2CN(C)C(=O)[C@@H]2C(=O)Nc2cccc(F)c2F)cc1Cl [Compound 1013] | – | – | – | – | – | 80 | – | 100 | 70 | 100 | 55 | 90
